From patent US20250129102A1, “CRYSTAL FORM OF PYRIMIDINE HETEROCYCLIC COMPOUND AND PREPARATION METHOD THEREFOR” (D3 Bio (Wuxi) Co., Ltd., priority 2021, published 2025)
Like-named read-outs stand apart in the source and are kept apart here.

Key:
[1] = In vitro stability in liver microsomes, CD-1 mice; assay type: in vitro ADME; conditions: mouse, CD-1 mice liver microsomes, 0.5 mg/mL
Description: (§1) Metabolic stabilities of the assay compound in liver microsomes of CD-1 mice, SD rats, beagle dogs, cynomolgus monkeys, and human were assayed, respectively.
(§2) Two 96-well incubation plates were prepared and named T60 incubation plate and NCF60 incubation plate, respectively. 445 μL of microsomal working solutions (liver microsomal protein concentration of 0.56 mg/mL) were added to the T60 incubation plate and the NCF60 incubation plate, respectively, and then the above incubation plates were pre-incubated in a 37° C. water bath for about 10 minutes.
(§3) After the pre-incubation, 5 μL of working solutions of the assay sample or the control compound were added to the T60 incubation plate and the NCF60 incubation plate, respectively, and the mixture was mixed well. 50 μL of potassium phosphate buffer was added to each well of the NCF60 incubation plate to initiate the reaction. 180 μL of stop solution (200 ng/mL tolbutamide and 200 ng/mL labetalol in acetonitrile) and 6 uL of NADPH regeneration system working solution were added to the T0 stop plate, and 54 μL of sample was transferred from T60 incubation plate to T0 stop plate (generation of T0 sample). The reaction was initiated by adding 44 μL of NADPH regeneration system working solution to each well of the T60 incubation plate. Only 54 μL of microsome working solution, 6 uL of NADPH regeneration system working solution and 180 μL of stop solution were added to the Blank plate. Therefore, in samples of the assay compound or the control compound, the final reaction concentration of compound, testosterone, diclofenac and propafenone was 1 μM, the concentration of liver microsomes was 0.5 mg/mL, and the final reaction concentrations of DMSO and acetonitrile in the reaction system were 0.01% (v/v) and 0.99% (v/v), respectively. […] All samples were injected and analyzed by liquid chromatography-tandem mass spectrometry.

[2] = In vitro stability in liver microsomes, SD rats; assay type: in vitro ADME; conditions: rat, 0.5 mg/mL
Description: as §1, §2, §3

[3] = Stability in plasma, human; assay type: in vitro ADME; conditions: 2 μM, 37° C.
Description: Stabilities of the assay compound in plasma of CD-1 mice and human were assayed, respectively. Cryopreserved plasma was thawed for 10 to 20 min. After the plasma was completely thawed, it was placed in a centrifuge and centrifuged at 3220×g for 5 min to remove any suspended matter and sediment in the plasma. 96-well incubation plates were prepared and named T0, T10, T30, T60, T120, respectively. 98 μL of blank plasmas of mouse, rat, canine, monkey and human were added to the corresponding incubation plates, then 2 μL of working solutions of the compound or the control compound were added to the corresponding plates in duplicate. All samples were incubated in a 37° C. water bath. The final incubation concentrations of the compound and the control compounds bisacodyl, enalapril maleate, procaine and probanthine were 2 μM, and the final organic phase content was 2.0%. At the end of incubation for each time point, the corresponding incubation plate was removed and 400 μL of a solution of 200 ng/mL of tolbutamide and labetalol in acetonitrile was added to each corresponding sample well to precipitate the protein. All sample plates were sealed and shaken well, and then centrifuged at 3220×g for 20 minutes. 50 μL of supernatant was taken out and diluted in 100 μL of ultrapure water. All samples were mixed well and then analyzed by LC/MS/MS.

[4] = Stability in whole blood, CD-1 mice; assay type: in vitro ADME; conditions: CD-1 mice whole blood, 5 μM, 37° C.
Description: Stabilities of the assay compound in whole blood of CD-1 mice, SD rats, beagle dogs and cynomolgus monkeys were assayed, respectively. On the day of the assay or the day before the assay, fresh whole blood from CD-1 mice, SD rats, beagle dogs, and cynomolgus monkeys was collected using anticoagulant EDTA-K2. Prior to the start of the assay, the whole blood was mixed with PBS in 1:1 (v: v) and the mixture was preheated in a 37° C. water bath for 10 to 20 minutes. 96-well incubation plates were prepared and named T0, T30, T60, […], respectively. In the corresponding incubation plates, including T0, T30, T60 and […] incubation plates, 2 μL of working solutions of the compound or the control compound were mixed with 98 μL of blank whole blood of mice, rats, canines, monkeys and human in duplicate. All samples were incubated in a 37° C. water bath. The final incubation concentration of the compound was 5 μM and the final incubation concentration of the control compound was 2 μM. At the end of incubation for each time point, the corresponding incubation plate was removed and 100 μL of ultrapure water was immediately added to the corresponding sample wells, and mixed well. 800 μL of a solution of 200 ng/mL tolbutamide and labetalol in acetonitrile was added to precipitate the protein. […] 150 μL of supernatant was taken out and analyzed by LC/MS/MS.

[5] = Pharmacokinetics by oral administration and intravenous injection in CD mice; assay type: in vivo; conditions: for Area under the plasma concentration-time curve, AUCu: AUC0-last × PPB(Unbound %); for Vd: CD, iv, 2 mg/kg; for AUC(0-t): read-out: Area under the plasma concentration-time curve, AUC0-last
Description: The mixture was vortexed and sonicated to prepare a 1 mg/mL clear solution, which was filtered through a microporous membrane for later use. Male CD mice aged 7 to 10 weeks were selected, and administered candidate compound solutions intravenously or orally. Whole blood was collected for a certain period of time, and prepared to obtain plasma. Drug concentration was analyzed by LC-MS/MS method, and pharmacokinetic parameters were calculated by Phoenix WinNonlin software (Pharsight, USA).

C=C(F)C(=O)N1CCN(c2nc(OC[C@@]34CCCN3C[C@H](F)C4)nc3c2CO[C@H](c2c(F)c(N)cc(C)c2C(F)(F)F)C3)C[C@@H]1CC#N [Compound of formula (I)]
CLint scaled at 1 μM [1]: 1130 mL/min/kg | half-life at 1 μM [1]: 4.9 min | microsomal CLint at 1 μM ([1]; read-out: CLint(hep)): 285 µL/min/mg | CLint scaled at 1 μM [2]: 108 mL/min/kg | half-life at 1 μM [2]: 23 min | microsomal CLint at 1 μM ([2]; read-out: CLint(hep)): 60.2 µL/min/mg | Detection of assay compound content within 120 min [3]: 93% | Detection of assay compound content within 240 min [4]: 117% | Area under the plasma concentration-time curve, AUCu ([5]; intravenous injection, 2.0 mg/kg): 0.1556 µM·h | Vd ([5]; male, mouse, plasma, intravenous injection, 2.0 mg/kg, Vdss/PPB(Unbound %), read-out: Apparent volume of distribution, Vdss, u): 32.3 L/kg | Vd ([5]; male, mouse, plasma, intravenous injection, 2.0 mg/kg, read-out: Apparent volume of distribution, Vdss): 3.9 L/kg | AUC(0-t) ([5]; male, mouse, plasma, intravenous injection, 2.0 mg/kg): 1.3 µM·h | clearance ([5]; male, mouse, plasma, intravenous injection, 2.0 mg/kg, read-out: Clearance rate, CL): 40.6 mL/min/kg | half-life ([5]; male, mouse, plasma, intravenous injection, 2.0 mg/kg, read-out: Half-life time, T1/2 (converted)): 102 min | AUC(0-t) ([5]; male, mouse, plasma, oral administration, 10.3 mg/kg): 1.42 µM·h | bioavailability ([5]; male, mouse, plasma, oral administration, 10.3 mg/kg, read-out: Bioavailability F (%)): 21.9% | Cmax ([5]; male, mouse, plasma, oral administration, 10.3 mg/kg, read-out: Peak concentration, Cmax): 431 nM | Tmax ([5]; male, mouse, plasma, oral administration, 10.3 mg/kg, read-out: Time-to-peak, Tmax): 60 min | Area under the plasma concentration-time curve, AUCu ([5]; oral administration, 10.3 mg/kg): 0.1706 µM·h | Peak concentration, Cmax, u ([5]; oral administration, 10.3 mg/kg, Cmax × PPB(Unbound %)): 51.7 nM
